Experimental data reported in patent US8865744B1, “(Cyano-dimethyl-methyl)-isoxazoles and -[1,3,4]thiadiazoles” (Boehringer Ingelheim International GmbH, priority 2013, dated 2014).
Like-named read-outs stand apart in the source and are kept apart here.

Key:
human CB2R = molecular target: T1, human CB2R (Homo sapiens, UniProt P34972); assay: CB2 cAMP (Assay 1): In vitro testing of CB2 potency; type: cell-based
T1 construct: host or cells: CHO cells

human CB1R = molecular target: T2, human CB1R (Homo sapiens, UniProt P21554); assay: CB1 cAMP (Assay 2): In vitro testing of CB1 potency; type: cell-based
T2 construct: host or cells: CHO cells
T2 sequence (P21554 whole entry): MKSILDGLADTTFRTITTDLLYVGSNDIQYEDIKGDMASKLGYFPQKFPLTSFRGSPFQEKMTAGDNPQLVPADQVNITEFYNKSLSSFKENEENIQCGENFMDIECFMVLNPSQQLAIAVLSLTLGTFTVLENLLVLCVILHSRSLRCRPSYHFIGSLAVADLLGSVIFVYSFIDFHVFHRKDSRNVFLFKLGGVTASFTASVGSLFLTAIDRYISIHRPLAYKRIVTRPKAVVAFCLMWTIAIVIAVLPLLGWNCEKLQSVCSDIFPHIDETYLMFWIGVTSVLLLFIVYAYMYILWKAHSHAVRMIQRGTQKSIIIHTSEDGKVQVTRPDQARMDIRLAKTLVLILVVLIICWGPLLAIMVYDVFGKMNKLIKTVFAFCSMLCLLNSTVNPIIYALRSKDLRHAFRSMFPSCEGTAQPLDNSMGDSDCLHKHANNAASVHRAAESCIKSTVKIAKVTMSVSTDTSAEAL

T1 sequence (P34972 whole entry): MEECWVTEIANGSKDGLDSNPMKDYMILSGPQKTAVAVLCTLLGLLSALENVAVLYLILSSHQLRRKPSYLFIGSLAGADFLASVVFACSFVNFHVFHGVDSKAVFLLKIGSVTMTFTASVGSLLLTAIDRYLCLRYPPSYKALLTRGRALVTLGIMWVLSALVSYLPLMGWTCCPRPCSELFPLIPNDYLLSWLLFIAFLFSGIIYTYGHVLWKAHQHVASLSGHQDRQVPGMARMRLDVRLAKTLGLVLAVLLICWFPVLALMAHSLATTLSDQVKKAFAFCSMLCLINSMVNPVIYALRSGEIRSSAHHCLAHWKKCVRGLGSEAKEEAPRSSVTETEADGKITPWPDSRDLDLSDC

Structure (SMILES) | EC50 (human CB2R; read-out: CB2 EC50) [nM] | EC50 (human CB2R) [nM] | EC50 (human CB1R) [nM] | EC50 (human CB1R; read-out: CB1 EC50) [nM]
CC(C)(CO)c1cc(NC(=O)C(C)(C)S(=O)(=O)CC2CCOCC2)on1 [Example 1 in WO2010036630] | 88 | – | – | –
CC(C)(C#N)c1cc(NC(=O)C(C)(C)S(=O)(=O)CCCC(F)(F)F)on1 [Example 1, N-[3-(Cyano-dimethyl-methyl)-isoxazol-5-yl]-2-methyl-2-(4,4,4-trifluoro-butane-1-sulfonyl)-propionamide] | – | 18 | 104000 | –
CC(C)(CO)c1cc(NC(=O)C(C)(C)S(=O)(=O)C2CCOCC2)on1 [Example 2 in WO2010036630] | – | – | 150000 | –
CC(C)(C#N)c1cc(NC(=O)C(C)(C)S(=O)(=O)CC2CCOCC2)on1 [Example 2, N-[3-(Cyano-dimethyl-methyl)-isoxazol-5-yl]-2-methyl-2-(tetrahydro-pyran-4-ylmethanesulfonyl)-propionamide] | – | 104 | > 200000 | –
CC(C)(C#N)c1cc(NC(=O)C(C)(C)S(=O)(=O)C2CCOCC2)on1 [Example 3] | 8 | – | – | > 200000
CN(CC1CCOCC1)C(C)(C)C(=O)Nc1cc(C(C)(C)C#N)no1 [Example 4] | 0.36 | – | – | 39400
CN(C1CCN(S(C)(=O)=O)CC1)C(C)(C)C(=O)Nc1cc(C(C)(C)C#N)no1 [Example 5] | 0.23 | – | – | 2500
CN(CC1CCOCC1)C(C)(C)C(=O)Nc1cc(C(C)(C)CO)no1 [Example 7 in WO2010147792] | 0.68 | – | – | 8080
CN(CC1CCOCC1)C(C)(C)C(=O)Nc1nnc(C(C)(C)C#N)s1 [Example 7, N-[5-(Cyano-dimethyl-methyl)-[1,3,4]thiadiazol-2-yl]-2-methyl-2-[methyl(tetrahydro-pyran-4-ylmethyl)-amino]-propionamide] | – | 25 | > 200000 | –
CN(C1CCN(S(C)(=O)=O)CC1)C(C)(C)C(=O)Nc1nnc(C(C)(C)C#N)s1 [Example 8] | – | 4.3 | 69000 | –
COCC(C)(C)c1cc(NC(=O)C(C)(C)S(=O)(=O)CC2CCOCC2)on1 [Example 17 in WO2010036630] | – | 30 | 8600 | –
CN(CC1CCOCC1)C(C)(C)C(=O)Nc1nnc(C(C)(C)CO)s1 [Example 30 in WO2010147792] | 5.4 | – | – | 120000
COCC(C)(C)c1cc(NC(=O)C(C)(C)N(C)CC2CCOCC2)on1 [Example 46 in WO2010147792] | 0.27 | – | – | 923
CN(C1CCN(S(C)(=O)=O)CC1)C(C)(C)C(=O)Nc1cc(C(C)(C)CO)no1 [Example 47 in WO2010147792] | 0.85 | – | – | 3100
CC(C)(O)c1cc(NC(=O)C(C)(C)S(=O)(=O)C2CCOCC2)on1 [Example 133 WO2010036630] | – | 140 | > 200000 | –
